According to patent US20100041089A1, “IMPROVED METHOD FOR DETECTING CHEMICAL […]” (priority 2006, published 2010):

Tested on: yeast genes (expressed mRNA)
Test: DNA chip measurement of expressed mRNA of yeast genes after culture with a toxic chemical substance
Type: cell-based, Saccharomyces cerevisiae S288C
Details: for level of expressed mRNA in the presence of chemical substance / level in the absence of chemical substance: cultured two hours with the chemical substance; for The level of expressed mRNA in the presence of chemical substance/The level of expressed mRNA in the absence of chemical substance: cultured two hours with substance
How it was run: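 Expression is given as treated/untreated fluorescence ratio on a whole-genome yeast DNA chip, a ratio of two or more being significant. Log-phase S288C cultures in YPD at 25 °C received the chemical for 2 h at a dose that slows growth without killing. mRNA was reverse-transcribed with Cy3- or Cy5-dUTP.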

Na2As [(1)]
level of expressed mRNA in the presence of chemical substance / level in the absence of chemical substance (yeast gene YDR133C): 0.9
level of expressed mRNA in the presence of chemical substance / level in the absence of chemical substance (yeast gene YDR250C): 1.9
level of expressed mRNA in the presence of chemical substance / level in the absence of chemical substance (yeast gene YDR278C): 1.0
level of expressed mRNA in the presence of chemical substance / level in the absence of chemical substance (yeast gene YDR281C): 2.1
The level of expressed mRNA in the presence of chemical substance/The level of expressed mRNA in the absence of chemical substance (yeast gene YDR330W): 0.8
level of expressed mRNA in the presence of chemical substance / level in the absence of chemical substance (yeast gene YDR366C): 0.9
The level of expressed mRNA in the presence of chemical substance/The level of expressed mRNA in the absence of chemical substance (yeast gene YDR411C): 0.9
The level of expressed mRNA in the presence of chemical substance/The level of expressed mRNA in the absence of chemical substance (yeast gene YDR511W): 1.3
The level of expressed mRNA in the presence of chemical substance/The level of expressed mRNA in the absence of chemical substance (yeast gene YDR545W): 0.6
The level of expressed mRNA in the presence of chemical substance/The level of expressed mRNA in the absence of chemical substance (yeast gene YEL001C): 1.0
The level of expressed mRNA in the presence of chemical substance/The level of expressed mRNA in the absence of chemical substance (yeast gene YER004W): 1.0
The level of expressed mRNA in the presence of chemical substance/The level of expressed mRNA in the absence of chemical substance (yeast gene YER035W): 1.4
The level of expressed mRNA in the presence of chemical substance/The level of expressed mRNA in the absence of chemical substance (yeast gene YER079W): 1.1
The level of expressed mRNA in the presence of chemical substance/The level of expressed mRNA in the absence of chemical substance (yeast gene YER106W): 1.3
The level of expressed mRNA in the presence of chemical substance/The level of expressed mRNA in the absence of chemical substance (yeast gene YER158C): 1.2
The level of expressed mRNA in the presence of chemical substance/The level of expressed mRNA in the absence of chemical substance (yeast gene YER163C): 1.1
The level of expressed mRNA in the presence of chemical substance/The level of expressed mRNA in the absence of chemical substance (yeast gene YER175C): 0.9
The level of expressed mRNA in the presence of chemical substance/The level of expressed mRNA in the absence of chemical substance (yeast gene YFL006W): 0.8
The level of expressed mRNA in the presence of chemical substance/The level of expressed mRNA in the absence of chemical substance (yeast gene YFL010C): 1.0
The level of expressed mRNA in the presence of chemical substance/The level of expressed mRNA in the absence of chemical substance (yeast gene YFL024C): 1.0
The level of expressed mRNA in the presence of chemical substance/The level of expressed mRNA in the absence of chemical substance (yeast gene YFL032W): 0.4
level of expressed mRNA in the presence of chemical substance / level in the absence of chemical substance (yeast gene YFR026C): 0.9
The level of expressed mRNA in the presence of chemical substance/The level of expressed mRNA in the absence of chemical substance (yeast gene YGL037C): 1.5
The level of expressed mRNA in the presence of chemical substance/The level of expressed mRNA in the absence of chemical substance (yeast gene YGL047W): 1.0
The level of expressed mRNA in the presence of chemical substance/The level of expressed mRNA in the absence of chemical substance (yeast gene YGL053W): 1.5
level of expressed mRNA in the presence of chemical substance / level in the absence of chemical substance (yeast gene YGL088W): 0.9
The level of expressed mRNA in the presence of chemical substance/The level of expressed mRNA in the absence of chemical substance (yeast gene YGL121C): 2.6
The level of expressed mRNA in the presence of chemical substance/The level of expressed mRNA in the absence of chemical substance (yeast gene YGL199C): 1.1
level of expressed mRNA in the presence of chemical substance / level in the absence of chemical substance (yeast gene YGR038W): 0.9
The level of expressed mRNA in the presence of chemical substance/The level of expressed mRNA in the absence of chemical substance (yeast gene YGR101W): 1.0
The level of expressed mRNA in the presence of chemical substance/The level of expressed mRNA in the absence of chemical substance (yeast gene YGR110W): 1.6
The level of expressed mRNA in the presence of chemical substance/The level of expressed mRNA in the absence of chemical substance (yeast gene YGR130C): 0.9
level of expressed mRNA in the presence of chemical substance / level in the absence of chemical substance (yeast gene YGR139W): 1.3
The level of expressed mRNA in the presence of chemical substance/The level of expressed mRNA in the absence of chemical substance (yeast gene YGR154C): 1.8
The level of expressed mRNA in the presence of chemical substance/The level of expressed mRNA in the absence of chemical substance (yeast gene YGR221C): 0.9
level of expressed mRNA in the presence of chemical substance / level in the absence of chemical substance (yeast gene YGR243W): 1.4
level of expressed mRNA in the presence of chemical substance / level in the absence of chemical substance (yeast gene YGR293C): 0.5
level of expressed mRNA in the presence of chemical substance / level in the absence of chemical substance (yeast gene YHL006C): 0.7
level of expressed mRNA in the presence of chemical substance / level in the absence of chemical substance (yeast gene YHR095W): 1.1
level of expressed mRNA in the presence of chemical substance / level in the absence of chemical substance (yeast gene YHR105W): 0.9
The level of expressed mRNA in the presence of chemical substance/The level of expressed mRNA in the absence of chemical substance (yeast gene YHR138C): 2.8
level of expressed mRNA in the presence of chemical substance / level in the absence of chemical substance (yeast gene YHR181W): 0.9
The level of expressed mRNA in the presence of chemical substance/The level of expressed mRNA in the absence of chemical substance (yeast gene YHR199C): 1.9
The level of expressed mRNA in the presence of chemical substance/The level of expressed mRNA in the absence of chemical substance (yeast gene YIL023C): 1.1
The level of expressed mRNA in the presence of chemical substance/The level of expressed mRNA in the absence of chemical substance (yeast gene YIL041W): 1.0
The level of expressed mRNA in the presence of chemical substance/The level of expressed mRNA in the absence of chemical substance (yeast gene YIL087C): 1.3
level of expressed mRNA in the presence of chemical substance / level in the absence of chemical substance (yeast gene YIL127C): 1.1
level of expressed mRNA in the presence of chemical substance / level in the absence of chemical substance (yeast gene YJL017W): 1.1
level of expressed mRNA in the presence of chemical substance / level in the absence of chemical substance (yeast gene YJL037W): 1.8
The level of expressed mRNA in the presence of chemical substance/The level of expressed mRNA in the absence of chemical substance (yeast gene YJL057C): 1.5
The level of expressed mRNA in the presence of chemical substance/The level of expressed mRNA in the absence of chemical substance (yeast gene YJL066C): 0.9
The level of expressed mRNA in the presence of chemical substance/The level of expressed mRNA in the absence of chemical substance (yeast gene YJL082W): 1.4
level of expressed mRNA in the presence of chemical substance / level in the absence of chemical substance (yeast gene YJL097W): 1.0
